The subject of test [1] is mice. The experiment in a line: Passive avoidance test (block of cycloheximide-induced amnesia). Format: in vivo. The following applies: Mus musculus, 2 h, intraperitoneal administration two hours prior to training, amnestic agent 30 mg/kg cycloheximide i.p., read-out: minimum effective dose (MED). As to the method: Passive avoidance is an acute memory paradigm in which mice are allowed to enter a dark compartment from a lighted compartment, but are given a footshock (2 mA for 5 seconds) when they enter the dark compartment. […] If an amnestic agent (30 mg/kg cycloheximide i.p. in saline) immediately after the training session is given to the animals, they will make the transition into the dark compartment (i.e., memory of the shock is lost). Compounds with suspected nootropic or anti-amnestic effects are given by i.p. administration two hours prior to the training trial in attempt to block the effects of cycloheximide. […] This behavioral response is defined as passive avoidance. A no effect response in this test is defined as a failure to stay in the lighted compartment for 120 seconds.

For test [2], the system named is mice. The test is described as above. Format: in vivo. The following applies: Mus musculus, oral administration, amnestic agent 30 mg/kg cycloheximide i.p., read-out: minimum effective dose (MED).

Like-named read-outs stand apart in the source and are kept apart here.

On to `CCOC(=O)c1ccc(NC(=O)CCn2cnc3c(Cl)nc(N)nc32)cc1` [Example 8, 4-[3-(2-amino-6-chloropurin-9-yl)propionylamino]benzoic acid ethyl ester], for which the minimal effective dose with mice [1] is 0.01 mg/kg.

Consider `CCOC(=O)c1ccc(NC(=O)C(C)n2cnc3c(=O)[nH]c(-c4ccccc4)nc32)cc1` (stereo not drawn) [Example 11, 4-[2-(6-oxo-2-phenyl-1,6-dihydropurin-9-yl)propionylamino]benzoic acid ethyl ester], for which, in the test with mice [1], the minimal effective dose stood at 10 mg/kg.

As for `O=C(CCn1cnc2c(=O)n(Cc3ccccc3)cnc21)NCCNC(=O)CN1CCCC1=O` [Example 14, 3-(1-benzyl-6-oxo-1,6-dihydropurin-9-yl)-N-{2-[2-(2-oxopyrrolidin-1-yl)acetylamino]ethyl}propionamide], the minimal effective dose with mice [1] amounted to 1 mg/kg.

As to `CCCCc1nc2c(ncn2C(C)C(=O)Nc2ccc(C(=O)OCC)cc2)c(=O)[nH]1` (stereo not drawn) [Example 10, 4-[2-(2-butyl-6-oxo-1,6-dihydropurin-9-yl)propionylamino]benzoic acid ethyl ester], the minimal effective dose in the test with mice [1] worked out at 0.1 mg/kg.

For `CCOC(=O)c1ccc(NC(=O)C(C)n2cnc3c(=O)[nH]c(=S)[nH]c32)cc1` (stereo not drawn) [Example 9, 4-[2-(6-oxo-2-thioxo-1,2,3,6-tetrahydropurin-9-yl)propionylamino]benzoic acid ethyl ester], the minimal effective dose is 0.0001 mg/kg in the test on mice [1] and 0.001 mg/kg with mice [2].

As for `CCOC(=O)c1ccc(NC(=O)CCn2cnc3c(=O)n(Cc4ccccc4)cnc32)cc1` [Example 1, 4-[3-(1-benzyl-6-oxo-1,6-dihydropurin-9-yl)propionylamino]benzoic acid ethyl ester], the minimal effective dose stood at 0.0003 mg/kg in the test with mice [1] and 0.01 mg/kg in the test on mice [2].

For `CCOC(=O)c1ccc(NC(=O)CCn2cnc3c(=O)n(C)cnc32)cc1` [Example 3, 4-[3-(1-methyl-6-oxo-1,6-dihydropurin-9-yl)propionylamino]benzoic acid ethyl ester], the minimal effective dose in the test on mice [1] was determined as 0.1 mg/kg.

With `CCOC(=O)c1ccc(NC(=O)CCn2cnc3c(=O)[nH]c(=O)[nH]c32)cc1` [Example 5, 4-[3-(2,6-dioxo-1,2,3,6-tetrahydropurin-9-yl)propionylamino]benzoic acid ethyl ester], the minimal effective dose in the test on mice [1] worked out at 0.001 mg/kg.

With `COC(=O)c1ccc(N(C)C(=O)CCn2cnc3c(Cl)ncnc32)cc1` [Example 12, 4-{[3-(6-chloropurin-9-yl)propionyl]methylamino}benzoic acid methyl ester], the minimal effective dose with mice [1] came out at 0.0001 mg/kg.

Consider `O=C(CCn1cnc2c(=O)n(Cc3ccccc3)cnc21)NCCCN1CCCC1=O` [Example 13, 3-(1-benzyl-6-oxo-1,6-dihydropurin-9-yl)-N-[3-(2-oxopyrrolidin-1-yl)propyl]propionamide], for which the minimal effective dose with mice [1] was 1 mg/kg.

With `CCOC(=O)c1ccc(NC(=O)CCn2cnc3c(=O)n(CCN(C)C)cnc32)cc1` [Example 4, 4-[3-(1-(2-dimethylaminoethyl)-6-oxo-1,6-dihydropurin-9-yl)propionylamino]benzoic acid ethyl ester], the minimal effective dose in the test on mice [1] came out at 1 mg/kg.

Take `CCCCn1cnc2c(ncn2CCC(=O)Nc2ccc(C(=O)OCC)cc2)c1=O` [Example 2, 4-[3-(1-butyl-6-oxo-1,6-dihydropurin-9-yl)propionylamino]benzoic acid ethyl ester]: in the test on mice [1], the minimal effective dose amounted to 0.001 mg/kg.

With `CCOC(=O)c1ccc(NC(=O)CCn2cnc3c(N(C)C)ncnc32)cc1` [Example 7, 4-[3-(6-dimethylaminopurin-9-yl)propionylamino]benzoic acid ethyl ester], the minimal effective dose with mice [1] is 0.01 mg/kg.

Source of the values: patent US20020156277A1, “Synthesis and methods of use of purine analogues and derivatives” (priority 2001, published 2002).
